Measurements as given in patent US10765680B2, “Combination of a MCL-1 inhibitor and a taxane compound, uses and pharmaceutical compositions thereof” (priority 2017, dated 2020).

Assays:
[1] = tested on: MDA-MB-436 breast cancer cell line; experiment: 72 hours CellTiter-Glo proliferation assay, MDA-MB-436; type: cell-based; details: single agent, read-out: Abs IC50
Description: (§1) Compounds were dissolved in 100% DMSO (Sigma, Catalog # D2438-50 ML) at a stock concentration of 10 mM and stored at −20° C. until use. Compounds were arrayed in 2 ml deep 96-well plates (Greiner bio-one, catalog number 780271) serially diluted 3-fold. Compound 1 was used over a concentration range of 0.0-10.0 μM. Paclitaxel was used over a concentration range of 0.0-1.0 μM in breast cancer cells and 0.0-2.0 μM range in lung cancer cells.
(§2) All cell lines were purchased from the American Type Culture Collection and cultured according to vendor recommendations. […] All cell lines were determined to be free of mycoplasma contamination by a PCR detection assay performed at Idexx Radil (Columbia, Mo., USA) and authenticated by SNP analysis. […] Cells were expanded to T-75 flasks and assessed for viability using a Beckman-Coulter ViCell counter prior to plating. […]
(§3) Cell proliferation was measured in 72 hours CellTiter-Glo™ (CTG) assays and all results shown are the result of at least triplicate measurements. […] After 72 hours of compound treatment the effects of compounds on cell proliferation was determined using the CellTiter-Glo™ Luminescent Cell Viability Assay (Promega, Catalog # G7573). This is a homogeneous method to determine the number of viable cells in culture based on quantitation of the ATP present, which signals the presence of metabolically active cells. […]

[2] = tested on: PDX models resistant to docetaxel; experiment: PDX models resistant to docetaxel, efficacy; type: in vivo, female Swiss Nude mice; details: Compound 1 70 mg/kg IV once a week, liposomal formulation
Description: PDX models whose resistance to docetaxel has been confirmed in vivo were tested. Each treatment group included 5 female Swiss Nude mice, aged from 6 to 8 weeks old. The treatment started when xenografts reached a mean tumor volume of ˜120-150 mm^3. Groups of mice were then randomly affected to the different treatments. The number of grafted animals depended on the homogeneity of the tumor growth.
Formulated in a liposomal formulation, Compound 1 was administered intravenously at 70 mg/kg once a week. The formulation had to be prepared extemporaneously. Paclitaxel diluted in 0.9% NaCl was given ip at 25 mg/kg. Paclitaxel was given QW 16 hours before the administration of Compound 1. The administration schedule of the different treatments is defined as follows: […]
Tumor sizes were measured twice a week and weights of individual mice were measured once a week. Treatments were done until the median tumor volume of the most responsive group started to regrow. Mice were followed after the stop of the treatment to compare the time to relapse between the groups. […]

[3] = tested on: A549 lung cancer cell line; experiment: 72 hours CellTiter-Glo proliferation assay, A549; type: cell-based; details: single agent, read-out: Abs IC50
Description: as §1, §2, §3

[4] = tested on: HCC1500 breast cancer cell line; experiment: 72 hours CellTiter-Glo proliferation assay, HCC1500; type: cell-based; details: single agent, read-out: Abs IC50
Description: as §1, §2, §3

[5] = tested on: TNBC PDX model OD-BRE-00589; experiment: TNBC PDX model OD-BRE-00589, antitumor activity; type: in vivo, female SCID mice; details: Compound 1 70 mg/kg iv once, liposomal formulation
Description: Docetaxel was formulated in 5% ethanol, 5% PS80 and 90% Glucose at 0.67 mg/ml to administer 10 mg/kg. […] OD-BRE-00589 is a triple negative breast cancer PDX, obtained from the IMODI consortium. […] It was grafted on SCID mice as fragments of 27 mm^3 volume. […] The administrations were performed once in the caudal vein.

For `COc1ccccc1-c1nccc(COc2ccccc2C[C@@H](Oc2ncnc3sc(-c4ccc(F)cc4)c(-c4ccc(OCCN5CCN(C)CC5)c(Cl)c4C)c23)C(=O)O)n1` [Compound 1, (2R)-2-{[(5Sa)-5-{3-chloro-2-methyl-4-[2-(4-methylpiperazin-1-yl)ethoxy]phenyl}-6-(4-fluorophenyl)thieno[2,3-d]pyrimidin-4-yl]oxy}-3-(2-{[2-(2-methoxyphenyl)pyrimidin-4-yl]methoxy}phenyl)propanoic acid], the IC50 [1] was over 10 µM, the “inhibition of tumor growth, single agent” value [2] was “insufficient in inhibiting tumor growth” and the IC50 [3] was over 10 µM. For the same compound, the IC50 [4] was 0.258 µM and the “inhibition of tumor growth, single agent” value [5] was “insufficient in inhibiting tumor growth”.
